Test system: human monocytic cell line U937
Experiment: Human U937 cellular necroptosis assay
Format: cell-based
Details: U-937; U937 cells stimulated with 25 ng/mL human TNFalpha and 25 μM z-VAD-FMK; 22 hr; viability by Cell Titer-Glo 2.0; read-out: hU937 IC50
Outline: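 U937 cells (5000/well) driven to necroptosis by 25 ng/mL human TNFalpha plus 25 μM z-VAD-FMK alongside 1:3-diluted compounds, 22 hr at 37° C, 5% CO2. Viability by CellTiter-Glo luminescence; IC50 from four-parameter logistic fit.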

Row | Compound | IC50
1 | Cc1cnc(C(=O)N[C@H]2COc3cc(F)cnc3N(C)C2=O)nc1C12CCC(CC1)CC2 [Example 86, (S)-4-(bicyclo[2.2.2]octan-1-yl)-N-(8-fluoro-5-methyl-4-oxo-2,3,4,5-tetrahydro-pyrido[3,2-b][1,4]oxazepin-3-yl)-5-methylpyrimidine-2-carboxamide] | 67.5 nM
2 | Cc1cnc(C(=O)N[C@H]2COc3cc(F)cnc3N(C)C2=O)nc1C1CCOCC1 [Example 87, (S)-N-(8-fluoro-5-methyl-4-oxo-2,3,4,5-tetrahydro-pyrido[3,2-b][1,4]oxazepin-3-yl)-5-methyl-4-(tetrahydro-2H-pyran-4-yl)pyrimidine-2-carboxamide] | 157 nM
3 | Cc1cnc(C(=O)N[C@H]2COc3cc(F)cnc3N(C)C2=O)nc1-c1ccccc1F [Example 88, (S)-N-(8-fluoro-5-methyl-4-oxo-2,3,4,5-tetrahydro-pyrido[3,2-b][1,4]oxazepin-3-yl)-4-(2-fluorophenyl)-5-methylpyrimidine-2-carboxamide] | 13.7 nM
4 | Cc1cc(F)ccc1-c1ccnc(C(=O)N[C@H]2COc3cc(Cl)cnc3N(C)C2=O)n1 [Example 89, (S)-N-(8-chloro-5-methyl-4-oxo-2,3,4,5-tetrahydro-pyrido[3,2-b][1,4]oxazepin-3-yl)-4-(4-fluoro-2-methylphenyl)pyrimidine-2-carboxamide] | 136 nM
5 | Cc1cc(F)cc(F)c1-c1ccnc(C(=O)N[C@H]2COc3cc(Cl)cnc3N(C)C2=O)n1 [Example 90, (S)-N-(8-chloro-5-methyl-4-oxo-2,3,4,5-tetrahydro-pyrido[3,2-b][1,4]oxazepin-3-yl)-4-(2,4-difluoro-6-methylphenyl)pyrimidine-2-carboxamide] | 83.5 nM
6 | CN1C(=O)[C@@H](NC(=O)c2ncc(F)c(-c3ccc(F)cc3)n2)COc2cc(Cl)cnc21 [Example 91, (S)-N-(8-chloro-5-methyl-4-oxo-2,3,4,5-tetrahydro-pyrido[3,2-b][1,4]oxazepin-3-yl)-5-fluoro-4-(4-fluorophenyl)-pyrimidine-2-carboxamide] | 33.2 nM
7 | Cc1cc(F)ccc1-c1nc(C(=O)N[C@H]2COc3cc(Cl)cnc3N(C)C2=O)ncc1F [Example 92, (S)-N-(8-chloro-5-methyl-4-oxo-2,3,4,5-tetrahydro-pyrido[3,2-b][1,4]oxazepin-3-yl)-5-fluoro-4-(4-fluoro-2-methylphenyl)pyrimidine-2-carboxamide] | 15.2 nM
8 | CN1C(=O)[C@@H](NC(=O)c2ncc(Cl)c(-c3ccccc3)n2)COc2cc(Cl)cnc21 [Example 93, (S)-5-chloro-N-(8-chloro-5-methyl-4-oxo-2,3,4,5-tetrahydropyrido[3,2-b]-[1,4]oxazepin-3-yl)-4-phenylpyrimidine-2-carboxamide] | 6.23 nM
9 | CN1C(=O)[C@@H](NC(=O)c2ncc(Cl)c(-c3ccccc3F)n2)COc2cc(Cl)cnc21 [Example 94, (S)-5-chloro-N-(8-chloro-5-methyl-4-oxo-2,3,4,5-tetrahydropyrido[3,2-b]-[1,4]oxazepin-3-yl)-4-(2-fluorophenyl)pyrimidine-2-carboxamide] | 13.5 nM
10 | CN1C(=O)[C@@H](NC(=O)c2ncc(Cl)c(-c3cccc(F)c3F)n2)COc2cc(Cl)cnc21 [Example 95, (S)-5-chloro-N-(8-chloro-5-methyl-4-oxo-2,3,4,5-tetrahydropyrido[3,2-b]-[1,4]oxazepin-3-yl)-4-(2,3-difluorophenyl)pyrimidine-2-carboxamide] | 15.2 nM
11 | CN1C(=O)[C@@H](NC(=O)c2ncc(Cl)c(-c3ccc(F)cc3F)n2)COc2cc(Cl)cnc21 [Example 96, (S)-5-chloro-N-(8-chloro-5-methyl-4-oxo-2,3,4,5-tetrahydropyrido[3,2-b]-[1,4]oxazepin-3-yl)-4-(2,4-difluorophenyl)pyrimidine-2-carboxamide] | 8.33 nM
12 | CN1C(=O)[C@@H](NC(=O)c2ncc(Cl)c(-c3ccc(F)c(F)c3)n2)COc2cc(Cl)cnc21 [Example 97, (S)-5-chloro-N-(8-chloro-5-methyl-4-oxo-2,3,4,5-tetrahydropyrido[3,2-b]-[1,4]oxazepin-3-yl)-4-(3,4-difluorophenyl)pyrimidine-2-carboxamide] | 11 nM
13 | CN1C(=O)[C@@H](NC(=O)c2ncc(Cl)c(-c3cc(F)ccc3F)n2)COc2cc(Cl)cnc21 [Example 98, (S)-5-chloro-N-(8-chloro-5-methyl-4-oxo-2,3,4,5-tetrahydropyrido[3,2-b]-[1,4]oxazepin-3-yl)-4-(2,5-difluorophenyl)pyrimidine-2-carboxamide] | 7.25 nM
14 | CN1C(=O)[C@@H](NC(=O)c2ncc(Cl)c(-c3cc(F)cc(F)c3)n2)COc2cc(Cl)cnc21 [Example 99, (S)-5-chloro-N-(8-chloro-5-methyl-4-oxo-2,3,4,5-tetrahydropyrido [3,2-b]-[1,4]oxazepin-3-yl)-4-(3,5-difluorophenyl)pyrimidine-2-carboxamide] | 13.9 nM
15 | Cc1cc(-c2nc(C(=O)N[C@H]3COc4cc(Cl)cnc4N(C)C3=O)ncc2Cl)ccc1F [Example 100, (S)-5-chloro-N-(8-chloro-5-methyl-4-oxo-2,3,4,5-tetrahydropyrido[3,2-b]-[1,4]oxazepin-3-yl)-4-(4-fluoro-3-methylphenyl)pyrimidine-2-carboxamide] | 12.2 nM
16 | CN1C(=O)[C@@H](NC(=O)c2ncc(Cl)c(-c3ccccc3Cl)n2)COc2cc(Cl)cnc21 [Example 101, (S)-5-chloro-N-(8-chloro-5-methyl-4-oxo-2,3,4,5-tetrahydropyrido[3,2-b]-[1,4]oxazepin-3-yl)-4-(2-chlorophenyl)pyrimidine-2-carboxamide] | 14.7 nM
17 | CN1C(=O)[C@@H](NC(=O)c2ncc(Cl)c(-c3cccc(Cl)c3)n2)COc2cc(Cl)cnc21 [Example 102, (S)-5-chloro-N-(8-chloro-5-methyl-4-oxo-2,3,4,5-tetrahydropyrido[3,2-b]-[1,4]oxazepin-3-yl)-4-(3-chlorophenyl)pyrimidine-2-carboxamide] | 12.7 nM
18 | CN1C(=O)[C@@H](NC(=O)c2ncc(Cl)c(-c3ccc(Cl)cc3)n2)COc2cc(Cl)cnc21 [Example 103, (S)-5-chloro-N-(8-chloro-5-methyl-4-oxo-2,3,4,5-tetrahydropyrido[3,2-b]-[1,4]oxazepin-3-yl)-4-(4-chlorophenyl)pyrimidine-2-carboxamide] | 6.69 nM
19 | CN1C(=O)[C@@H](NC(=O)c2ncc(Cl)c(-c3cccc(C#N)c3)n2)COc2cc(Cl)cnc21 [Example 104, (S)-5-chloro-N-(8-chloro-5-methyl-4-oxo-2,3,4,5-tetrahydropyrido[3,2-b]-[1,4]oxazepin-3-yl)-4-(3-cyanophenyl)pyrimidine-2-carboxamide] | 32.1 nM
20 | CN1C(=O)[C@@H](NC(=O)c2ncc(Cl)c(-c3ccc(C#N)cc3)n2)COc2cc(Cl)cnc21 [Example 105, (S)-5-chloro-N-(8-chloro-5-methyl-4-oxo-2,3,4,5-tetrahydropyrido[3,2-b]-[1,4]oxazepin-3-yl)-4-(4-cyanophenyl)pyrimidine-2-carboxamide] | 19.6 nM
21 | Cc1cccc(-c2nc(C(=O)N[C@H]3COc4cc(Cl)cnc4N(C)C3=O)ncc2Cl)c1 [Example 106, (S)-5-chloro-N-(8-chloro-5-methyl-4-oxo-2,3,4,5-tetrahydropyrido[3,2-b]-[1,4]oxazepin-3-yl)-4-(m-tolyl)-pyrimidine-2-carboxamide] | 14.8 nM
